Assay: In vitro dissolution (paddle method, HPLC)
Assay type: physicochemical
Conditions: 500 ml water, 37° C., 45 min, paddle 200 r/min
Description: Dissolution Measurement: Dissolution rates of the compositions were measured according to the procedures described in the Chinese Pharmacopeia 2005, Appendix XC, Method 2: Paddle Determination. Briefly, samples are added into 500 ml of de-aired, and deionized water which is kept at 37±0.5° C. for 45 min while the paddle rotates at 200 r/min. Take samples and let the sample be passed through the 0.8 μm filter membrane, and analyzed by HPLC. The dissolution rate was then calculated.

## S=C=NCCc1ccccc1 [PEITC, phenethyl isothiocyanate]
  Dissolution Rate: 0%

Reference: patent publication US8410170B2, “Use of isothiocyanates compounds in treating prostatic diseases and skin cancer” (Wuxi JC Pharmaceutical Technology Co., Ltd., priority 2005, dated 2013)
